Results on 37 molecules are retold here after patent US10377753B2, “Substituted 4-azaindoles and their use as GluN2B receptor modulators” (Janssen Pharmaceutica NV, priority 2015, dated 2019).

For orientation: IC50 means the concentration at which inhibition is half-maximal.

Chain of cloned human NR1/NR2B ion channels (Q13224 27-1484, other chains not shown): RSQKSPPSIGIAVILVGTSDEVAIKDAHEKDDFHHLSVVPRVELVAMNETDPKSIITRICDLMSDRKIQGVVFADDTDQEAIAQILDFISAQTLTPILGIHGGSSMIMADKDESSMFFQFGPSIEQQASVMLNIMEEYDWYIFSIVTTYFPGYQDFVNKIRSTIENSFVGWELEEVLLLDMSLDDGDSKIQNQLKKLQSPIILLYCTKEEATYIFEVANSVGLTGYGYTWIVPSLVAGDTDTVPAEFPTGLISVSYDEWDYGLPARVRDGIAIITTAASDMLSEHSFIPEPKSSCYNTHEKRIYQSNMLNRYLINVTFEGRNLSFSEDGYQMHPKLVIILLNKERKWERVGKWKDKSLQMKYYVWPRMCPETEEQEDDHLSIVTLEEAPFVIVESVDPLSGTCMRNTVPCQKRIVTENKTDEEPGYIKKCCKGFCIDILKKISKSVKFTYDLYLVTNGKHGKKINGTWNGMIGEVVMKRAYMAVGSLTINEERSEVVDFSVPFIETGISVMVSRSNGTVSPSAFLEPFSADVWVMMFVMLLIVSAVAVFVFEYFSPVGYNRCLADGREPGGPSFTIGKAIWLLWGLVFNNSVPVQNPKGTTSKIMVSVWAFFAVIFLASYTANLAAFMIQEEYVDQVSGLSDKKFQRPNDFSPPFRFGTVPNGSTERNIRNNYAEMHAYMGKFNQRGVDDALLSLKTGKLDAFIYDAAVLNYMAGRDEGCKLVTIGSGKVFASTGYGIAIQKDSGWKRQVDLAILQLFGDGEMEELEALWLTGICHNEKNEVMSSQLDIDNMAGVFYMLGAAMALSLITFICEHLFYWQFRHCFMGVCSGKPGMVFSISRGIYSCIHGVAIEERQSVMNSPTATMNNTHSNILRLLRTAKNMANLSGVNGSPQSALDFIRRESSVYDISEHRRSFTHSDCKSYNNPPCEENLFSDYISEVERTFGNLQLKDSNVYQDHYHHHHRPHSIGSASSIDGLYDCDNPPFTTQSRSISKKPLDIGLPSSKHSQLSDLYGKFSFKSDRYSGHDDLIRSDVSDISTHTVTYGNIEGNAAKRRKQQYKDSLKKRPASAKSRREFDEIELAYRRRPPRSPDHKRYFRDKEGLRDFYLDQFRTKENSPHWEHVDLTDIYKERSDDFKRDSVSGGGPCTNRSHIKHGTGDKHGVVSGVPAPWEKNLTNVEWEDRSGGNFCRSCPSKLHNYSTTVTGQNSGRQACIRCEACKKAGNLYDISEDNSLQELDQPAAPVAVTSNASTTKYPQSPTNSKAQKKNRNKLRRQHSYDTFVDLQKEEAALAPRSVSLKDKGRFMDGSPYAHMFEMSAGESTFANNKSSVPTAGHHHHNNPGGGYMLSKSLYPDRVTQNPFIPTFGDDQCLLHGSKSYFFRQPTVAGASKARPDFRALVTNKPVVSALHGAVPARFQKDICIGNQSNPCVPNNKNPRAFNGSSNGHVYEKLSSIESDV

The assay concerns the target cloned human NR1/NR2B ion channels (Homo sapiens (Human), UniProt Q05586+Q13224). The assay can be described thus: HNR2BC: effects of test articles on cloned human NR1/NR2B ion channels expressed in mammalian cells (FLIPR calcium flux). The assay is classed as cell-based. To be noted: cloned human NR1/NR2B ion channels, Table 5. The method, boiled down: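 In a stable Tet-On-induced cell line expressing human GluN1/GluN2B, Calcium 5-loaded cells were preincubated 5 min with compound, then stimulated 5 min with glutamate at ~EC80 plus 10 μM glycine, in pH 7.4 HEPES buffer. FLIPR calcium fluorescence was normalized to control wells.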
A general note: Calcium flux is commonly read through the fluorescence of an indicator in the cells.
Take `CCN(C)C(=O)Cn1cc(C)c2ncc(-c3cccc(C(F)(F)F)c3)cc21` [Example 568, N-Ethyl-N-methyl-2-[3-methyl-6-[3-(trifluoromethyl)phenyl]pyrrolo[3,2-b]pyridin-1-yl]acetamide]: the IC50 is 501 nM. `Cc1cn(CC(=O)N2CC(F)(F)C2)c2cc(-c3cccc(C(F)(F)F)c3)cnc12` [Example 569, 1-(3,3-Difluoroazetidin-1-yl)-2-[3-methyl-6-[3-(trifluoromethyl)phenyl]pyrrolo[3,2-b]pyridin-1-yl]ethanone]: the IC50 was 398 nM. Then `Cc1cn(CC(=O)N2CCC2)c2cc(-c3cc(F)c(F)c(F)c3)cnc12` [Example 570, 1-(Azetidin-1-yl)-2-[3-methyl-6-(3,4,5-trifluorophenyl)pyrrolo[3,2-b]pyridin-1-yl]ethanone], with 63.1 nM; and `Cc1cn(CC(=O)N(C)C)c2cc(-c3cc(F)c(F)c(F)c3)cnc12` [Example 571, N,N-Dimethyl-2-[3-methyl-6-(3,4,5-trifluorophenyl)pyrrolo[3,2-b]pyridin-1-yl]acetamide], with 50.1 nM; and `Cc1cccc(-c2cnc3c(C)cn(CC(=O)N(C)C)c3c2)c1` [Example 572, N,N-Dimethyl-2-[3-methyl-6-(m-tolyl)pyrrolo[3,2-b]pyridin-1-yl]acetamide], with 79.4 nM.

As for `Cc1csc(-c2cnc3c(C)cn(CC(=O)N(C)C)c3c2)c1` [Example 573, N,N-Dimethyl-2-[3-methyl-6-(4-methyl-2-thienyl)pyrrolo[3,2-b]pyridin-1-yl]acetamide], the IC50 is 126 nM. Then `Cc1csc(-c2cnc3c(C)cn(CC(=O)N4CCC4)c3c2)c1` [Example 574, 1-(Azetidin-1-yl)-2-[3-methyl-6-(4-methyl-2-thienyl)pyrrolo[3,2-b]pyridin-1-yl]ethanone], with 79.4 nM; and `Cc1csc(-c2cnc3c(C)cn(CC(=O)N4CC(F)C4)c3c2)c1` [Example 575, 1-(3-Fluoroazetidin-1-yl)-2-[3-methyl-6-(4-methyl-2-thienyl)pyrrolo[3,2-b]pyridin-1-yl]ethanone], with 79.4 nM. Then `Cc1cn(CC(=O)N(C)C)c2cc(-c3ccccc3)cnc12` [Example 576, N,N-Dimethyl-2-(3-methyl-6-phenyl-pyrrolo[3,2-b]pyridin-1-yl)acetamide], with 100 nM; and `CCN(C)C(=O)Cn1cc(C)c2ncc(-c3ccccc3)cc21` [Example 577, N-Ethyl-N-methyl-2-(3-methyl-6-phenyl-pyrrolo[3,2-b]pyridin-1-yl)acetamide], with 200 nM; and `Cc1cn(CC(=O)N2CC(F)C2)c2cc(-c3ccccc3)cnc12` [Example 578, 1-(3-Fluoroazetidin-1-yl)-2-(3-methyl-6-phenyl-pyrrolo[3,2-b]pyridin-1-yl)ethanone], with 126 nM. Then `Cc1cn(CC(=O)N2CC(F)(F)C2)c2cc(-c3ccccc3)cnc12` [Example 579, 1-(3,3-Difluoroazetidin-1-yl)-2-(3-methyl-6-phenyl-pyrrolo[3,2-b]pyridin-1-yl)ethanone], with 63.1 nM; and `Cc1cc(-c2cnc3c(C)cn(CC(=O)N4CC(F)C4)c3c2)ccc1F` [Example 580, 1-(3-Fluoroazetidin-1-yl)-2-[6-(4-fluoro-3-methyl-phenyl)-3-methyl-pyrrolo[3,2-b]pyridin-1-yl]ethanone], with 79.4 nM; and `Cc1cccc(-c2cnc3c(C)cn(CC(=O)N4CCC4)c3c2)c1` [Example 581, 1-(Azetidin-1-yl)-2-[3-methyl-6-(m-tolyl)pyrrolo[3,2-b]pyridin-1-yl]ethanone], with 79.4 nM. Consider `Cc1cn(CC(=O)N2CCC2)c2cc(-c3ccc(F)c(F)c3F)cnc12` [Example 582, 1-(Azetidin-1-yl)-2-[3-methyl-6-(2,3,4-trifluorophenyl)pyrrolo[3,2-b]pyridin-1-yl]ethanone], for which the IC50 is 39.8 nM. Then `Cc1cn(CC(=O)N(C)C)c2cc(-c3ccc(F)c(F)c3F)cnc12` [Example 583, N,N-Dimethyl-2-[3-methyl-6-(2,3,4-trifluorophenyl)pyrrolo[3,2-b]pyridin-1-yl]acetamide], with 126 nM.

For the molecule `CCN(C)C(=O)Cn1cc(C)c2ncc(-c3ccc(F)c(F)c3F)cc21` [Example 584, N-Ethyl-N-methyl-2-[3-methyl-6-(2,3,4-trifluorophenyl)pyrrolo[3,2-b]pyridin-1-yl]acetamide], the IC50 was 398 nM. As to `Cc1cn(CC(=O)N2CCC2)c2cc(-c3cccc(C(F)(F)F)c3F)cnc12` [Example 585, 1-(Azetidin-1-yl)-2-[6-[2-fluoro-3-(trifluoromethyl)phenyl]-3-methyl-pyrrolo[3,2-b]pyridin-1-yl]ethanone], the IC50 is 251 nM. As for `Cc1cn(CC(=O)N(C)C)c2cc(-c3cccc(C(F)(F)F)c3F)cnc12` [Example 586, 2-[6-[2-Fluoro-3-(trifluoromethyl)phenyl]-3-methyl-pyrrolo[3,2-b]pyridin-1-yl]-N,N-dimethyl-acetamide], the IC50 was 126 nM. For `CCN(C)C(=O)Cn1cc(C)c2ncc(-c3cccc(C(F)(F)F)c3F)cc21` [Example 587, N-Ethyl-2-[6-[2-fluoro-3-(trifluoromethyl)phenyl]-3-methyl-pyrrolo[3,2-b]pyridin-1-yl]-N-methyl-acetamide] the value was 251 nM. Then `Cc1cn(CC(=O)N2CC(F)C2)c2cc(-c3ccc(F)c(F)c3F)cnc12` [Example 588, 1-(3-Fluoroazetidin-1-yl)-2-[3-methyl-6-(2,3,4-trifluorophenyl)pyrrolo[3,2-b]pyridin-1-yl]ethanone], with 631 nM.

Consider `Cc1cn(CC(=O)N2CC(F)C2)c2cc(-c3cccc(C(F)(F)F)c3F)cnc12` [Example 589, 1-(3-Fluoroazetidin-1-yl)-2-[6-[2-fluoro-3-(trifluoromethyl)phenyl]-3-methyl-pyrrolo[3,2-b]pyridin-1-yl]ethanone], for which the IC50 was 126 nM.

As for `Cc1cn(CC(=O)N2CCCC2)c2cc(-c3cccc(C(F)(F)F)c3F)cnc12` [Example 590, 2-[6-[2-Fluoro-3-(trifluoromethyl)phenyl]-3-methyl-pyrrolo[3,2-b]pyridin-1-yl]-1-pyrrolidin-1-yl-ethanone], the IC50 is 316 nM. As for `Cc1cn(CC(=O)N2CCCC2)c2cc(-c3ccc(F)c(F)c3F)cnc12` [Example 591, 2-[3-Methyl-6-(2,3,4-trifluorophenyl)pyrrolo[3,2-b]pyridin-1-yl]-1-pyrrolidin-1-yl-ethanone], the IC50 is 126 nM.

In the case of `Cc1cn(CC(=O)N2CCC2)c2cc(-c3ccccc3F)cnc12` [Example 592, 1-(Azetidin-1-yl)-2-[6-(2-fluorophenyl)-3-methyl-pyrrolo[3,2-b]pyridin-1-yl]ethanone], the IC50 was 126 nM. For `Cc1cn(CC(=O)N(C)C)c2cc(-c3ccccc3F)cnc12` [Example 593, 2-[6-(2-Fluorophenyl)-3-methyl-pyrrolo[3,2-b]pyridin-1-yl]-N,N-dimethyl-acetamide] the value was 251 nM.

Take `CCN(C)C(=O)Cn1cc(C)c2ncc(-c3ccccc3F)cc21` [Example 594, N-Ethyl-2-[6-(2-fluorophenyl)-3-methyl-pyrrolo[3,2-b]pyridin-1-yl]-N-methyl-acetamide]: the IC50 was 794 nM.

As to `Cc1cn(CC(=O)N2CC(F)(F)C2)c2cc(-c3cccc(C(F)(F)F)c3F)cnc12` [Example 595, 1-(3,3-Difluoroazetidin-1-yl)-2-[6-[2-fluoro-3-(trifluoromethyl)phenyl]-3-methyl-pyrrolo[3,2-b]pyridin-1-yl]ethanone], the IC50 was 251 nM. For `Cc1cn(CC(=O)N2CC(F)(F)C2)c2cc(-c3ccc(F)c(F)c3F)cnc12` [Example 596, 1-(3,3-Difluoroazetidin-1-yl)-2-[3-methyl-6-(2,3,4-trifluorophenyl)pyrrolo[3,2-b]pyridin-1-yl]ethanone] the value was 50.1 nM.

Take `Cc1cn(CC(=O)N2CC(F)(F)C2)c2cc(-c3ccccc3F)cnc12` [Example 597, 1-(3,3-Difluoroazetidin-1-yl)-2-[6-(2-fluorophenyl)-3-methyl-pyrrolo[3,2-b]pyridin-1-yl]ethanone]: the IC50 was 316 nM. For `Cc1cn(CC(=O)N2CC(F)C2)c2cc(-c3cc(F)c(F)c(F)c3)cnc12` [Example 598, 1-(3-Fluoroazetidin-1-yl)-2-[3-methyl-6-(3,4,5-trifluorophenyl)pyrrolo[3,2-b]pyridin-1-yl]ethanone] the value was 39.8 nM; for `Cc1cc(-c2cnc3c(Cl)cn(CC(=O)N(C)C)c3c2)c(C)s1` [Example 599, 2-[3-Chloro-6-(2,5-dimethyl-3-thienyl)pyrrolo[3,2-b]pyridin-1-yl]-N,N-dimethyl-acetamide], 100 nM; for `CN(C)C(=O)Cn1cc(Cl)c2ncc(-c3cccc(C(F)(F)F)c3)cc21` [Example 600, 2-[3-Chloro-6-[3-(trifluoromethyl)phenyl]pyrrolo[3,2-b]pyridin-1-yl]-N,N-dimethyl-acetamide], 79.4 nM. Then `CN(C)C(=O)Cn1cc(Cl)c2ncc(-c3cccc(C(F)(F)F)n3)cc21` [Example 601, 2-[3-Chloro-6-[6-(trifluoromethyl)-2-pyridyl]pyrrolo[3,2-b]pyridin-1-yl]-N,N-dimethyl-acetamide], with 126 nM; and `Cc1cc(-c2cnc3c(Cl)cn(CC(=O)N(C)C)c3c2)sc1Cl` [Example 602, 2-[3-Chloro-6-(5-chloro-4-methyl-2-thienyl)pyrrolo[3,2-b]pyridin-1-yl]-N,N-dimethyl-acetamide], with 10 nM; and `CN(C)C(=O)Cn1cc(Cl)c2ncc(-c3ccc(C(F)(F)F)s3)cc21` [Example 603, 2-[3-Chloro-6-[5-(trifluoromethyl)-2-thienyl]pyrrolo[3,2-b]pyridin-1-yl]-N,N-dimethyl-acetamide], with 63.1 nM. Then `CN(C)C(=O)Cn1ccc2ncc(-c3cc4ccccc4s3)cc21` [Example 604, 2-[6-(Benzothiophen-2-yl)pyrrolo[3,2-b]pyridin-1-yl]-N,N-dimethyl-acetamide], with 200 nM.
